Laboratory results reported in patent US5369112A, “Method of treating cataracts caused by active oxygen” (Mitsubishi Gas Chemical Company, Inc., priority 1991, dated 1994).
Like-named read-outs stand apart in the source and are kept apart here.

Columns and labels:
male mice SPF-ICR [1] = test: Acute Toxicity Test (2), intraperitoneal; format: in vivo; settings: 8 mice per group, 14 days
Experimental: (§1) To male mice SPF-ICR five weeks old (supplied by Japan Charles River Co.) were intraperitoneally administered PQQ triallyl ester at dosages of 40, 80, 160, 200, 400 and 800 mg per kg of body weight of mouse, respectively and they were bred for 14 days at 25° C. One group consisted of 8 mice. For administration, PQQ triallyl ester was suspended in 1% Tween 80-containing physiological saline.

[2] = Acute Toxicity Test (2), intraperitoneal; format: in vivo; settings: mouse, in vivo, ip
Experimental: as §1

[3] = Superoxide scavenging activity (hypoxanthine-xanthine oxidase, DMPO spin trapping, ESR); format: biochemical; settings: pH 7.3, read-out: O2^- scavenging activity IC50
Description: Activity of PQQ esters to scavenge superoxide (O2^-) produced in the system of hypoxanthinexanthine oxidase was examined by spin trapping method [using 5,5-dimethyl-l-pyrroline-N-oxide (hereinafter referred to as "DMPO") as a spin trapping agent] where electron spin resonance (hereinafter referred to as "ESR") was used.
Hypoxanthine+2O2 →2O2^- +uric acid (xanthine oxidase)
The following reagents were successively put in a test tube and stirred after addition of the hypoxanthine 7 to initiate the reaction and the reaction mixture was transferred to a quartz cell used for measurement of ESR.
Superoxide scavenging activity of OPQ and esters thereof was examined in the same manner as in Example 1.

mice [4] = test: Kidney Toxicity Determined by Blood Examination (1); format: in vivo; settings: for Creatinine / Glucose / Urea nitrogen: mouse serum
Experimental: (§2) After lapse of one day from the administration, the mice were fasted (with feeding only water) and then after 18 hours, blood was collected and serum was obtained therefrom. Glucose, urea nitrogen and creatinine in the serum were examined by clinical examination reagent (trademark: FUJI DRYCHEMSLIDE manufactured by Fuji Photo Film Co., Ltd.).

male mice SPF-ICR [5] = test: Acute toxicity test (1), intraperitoneal; settings: mouse, in vivo
Experimental: To male mice SPF-ICR five weeks old (supplied by Japan Charles River Co.) were intraperitoneally administered PQQ·2Na, PQQ trimethyl ester, PQQ triallyl ester, OPQ, 1-methylpropyl OPQ, 2-methylthioethyl OPQ and benzyl OPQ at dosages of 40, 80, 160 and 200 mg per kg of body weight of mouce, respectively and they were bred for 14 days at 25° C. One group consisted of 8 mice. For administration, PQQ·2Na and OPQ and esters thereof were dissolved in physiological saline and PQQ trimethyl ester and PQQ triallyl ester were suspended in 1% Tween 80-containing physiological saline, respectively.

[6] = not told; for Membrane permeation constant: bovine, 960 min
Experimental: Permeability of various compounds through capsule of crystal bovine lens was examined in accordance with the method mentioned in "Crystal Lens and Biochemical Mechanism thereof" (pages 436-440) edited by Shuzo Iwata (Medical Aoi Publisher). Each compound dissolved in 10 mM HEPES buffer (containing 1% DMSO in the case of PQQ triesters) was put in an apparatus for measurement of membrane permeation constant and left to stand for 16 hours at 35° C. and then amount of the compound which migrated was measured by ultraviolet absorption (243 nm for PQQ·2Na and 255 nm for PQQ esters) to obtain membrane permeation constant.

[7] = test system: Hydrocortisone-Induced Cataract of Hen's Eggs; test: Effect on hydrocortisone-induced cataract of hen's eggs; format: in vivo, white leghorn (hen's eggs); settings: 1 μmole at 3, 10 and 20 h after hydrocortisone; lens at 48 h
Experimental: Fertilized eggs of white leghorn were incubated in an incubator at a temperature of 37° C. and 70% in humidity. The day on which the incubation was started was taken to be one day old. […] eggs of 15 day old were prepared and divided into 7 groups, each of which included 5 eggs (A-G). A small hole was bored through the eggshell above air chamber of the eggs of groups B-G and 0.25 μmole (as 0.2 ml solution) of hydrocortisone sodium succinate was administered into the air chamber through the hole and then, the hole was sealed with a cellophane tape. To The eggs of groups C-G was administered 1 μmole of following compounds after 3, 10 and 20 hours from administration of hydrocortisone sodium succinate. That is, 0.2 ml of a solution of PQQ·2Na in distilled water was administered to the eggs of group C, 0.2 ml of a suspension of PQQ trimethyl ester in 1% Tween 80 solution was administered to the eggs of group D, 0.2 ml of a suspension of triallyl ester in 1% Tween 80 solution was administered to the eggs of group E, 0.2 ml of a solution of OPQ in 10 mM NaCO3 solution was administered to the eggs of group F, and 0.2 ml of a solution of methyl OPQ in 10 mM NaCO3 solution was administered to the eggs of group G.
Crystal lens was taken out after 48 hours from administration of hydrocortisone sodium succinate and degree of cataract was judged by the criteria according to the Nishigori et al method (Nishigori et al, "Investigative Ophthalmology & Visual Science", Vol. 25, page 1051, 1984).
5 The whole nucleus was hazed in white.

[8] = Hydroxy radical scavenging activity (H2O2-(Fe^2+-DTPA), DMPO spin trapping, ESR); format: biochemical; settings: pH 7.3, read-out: .OH scavenging activity IC50
Description: Activity of PQQ esters to scavenge hydroxy radical (·OH) produced in the system of H2 O2 --(Fe^2+ -DTPA) was examined by spin trapping method [using 5,5-dimethyl-1-pyrroline-N-oxide (hereinafter referred to as "DMPO") as a spin trapping agent] where electron spin resonance (hereinafter referred to as "ESR") was used. DTPA means diethylenetriamine-pentaacetic acid.
H2 O2 +Fe^2 -DTPA complex→·OH+OH^-
The following reagents were successively put in a test tube and stirred after addition of H2 O2 6 to initiate the reaction and the reaction mixture was transferred to a quartz cell used for measurement of ESR.
Hydroxy radical scavenging activity of OPQ and esters thereof was examined in the same manner as in Example 3.

mice [9] = settings: mouse, in vivo, ip
Experimental: One group consisted of 8 mice. For administration, PQQ·2Na and OPQ and esters thereof were dissolved in physiological saline and PQQ trimethyl ester and PQQ triallyl ester were suspended in 1% Tween 80-containing physiological saline, respectively.
PQQ·2Na, PQQ trimethyl ester, PQQ triallyl ester and OPQ and esters thereof were intraperitoneally administered to mice and they were bred in the same manner as in the above acute toxicity test. Urine of the mice was taken every day and glucose concentration was measured using clinical examination reagent (trademark: […] 2 manufactured by Miles.Sankyo Co.).

mice [10] = test: Kidney Toxicity Determined by Blood Examination (2); format: in vivo; settings: for Creatinine / Glucose / Urea nitrogen: mouse serum
Experimental: Dosages were 150, 400 and 1000 mg per kg of body weight of mouse.
as §2, with “15” for “18”

mice [11] = test: Kidney Toxicity Determined by Blood Examination (3); format: in vivo; settings: mouse serum
Experimental: as §2, with “Thereafter,” for “After lapse of one day from the administration,”

male mice SPF-ICR [12] = test: Acute Toxicity Test (4), oral; format: in vivo; settings: oral 1.0, 1.5 and 2.0 g/kg, 8 mice per group, 14 days
Experimental: To male mice SPF-ICR five weeks old (supplied by Japan Charles River Co.) was orally administered OPQ at dosages of 1.0, 1.5 and 2.0 g per kg of body weight of mouse, respectively and they were bred for 14 days at 25° C. One group consisted of 8 mice. No mice died.

male mice SPF-ICR [13] = test: Acute Toxicity Test (3), intraperitoneal; format: in vivo; settings: for mice died: 8 mice per group, 14 days
Description: One group consisted of 8 mice.

## C=CCOC(=O)c1cc(C(=O)OCC=C)c2c(n1)C(=O)C(=O)c1cc(C(=O)OCC=C)[nH]c1-2 [PQQ triallyl ester]
Male mice SPF-ICR [1]; i.p. 200 mg/kg or less
  mice died: No mice died
Male mice SPF-ICR [1]; i.p. 400 mg/kg
  mice died: three mice died
Male mice SPF-ICR [1]; i.p. 800 mg/kg
  mice died: eight mice all died
[2]
  LD50 at 336 h: ~500 mg/kg
[3]; Example 1, Table 6
  IC50: 12.4 nM
Mice [4]; mice, summary of Table 3
  contents of glucose, urea nitrogen and creatinine in serum: nearly the same as those in the case of administration of no compounds
Mice [4]; 40 mg/kg
  Creatinine: 0.3 ± 0.1 mg/dL
  Glucose: 42 ± 6 mg/dL
  Urea nitrogen: 11 ± 4 mg/dL
Mice [4]; 90 mg/kg
  Creatinine: 0.2 ± 0.1 mg/dL
  Glucose: 47 ± 15 mg/dL
  Urea nitrogen: 12 ± 3 mg/dL
Mice [4]; 160 mg/kg
  Creatinine: 0.1 ± 0.1 mg/dL
  Glucose: 59 ± 16 mg/dL
  Urea nitrogen: 10 ± 1 mg/dL
Mice [4]; 200 mg/kg
  Creatinine: 0.1 ± 0.1 mg/dL
  Glucose: 76 ± 6 mg/dL
  Urea nitrogen: 9 ± 1 mg/dL
Mice [4]; mouse, in vivo
  kidney toxicity: kidney toxicity was not seen
Male mice SPF-ICR [5]
  mice died: no mice died
[6]
  Membrane permeation constant: 2.42 ± 0.60 10 ^-7 cm^2 · sec^-1
[7]
  Judgement 1 (No haze was seen in crystal lens), eggs: 2/5
  Judgement 2 (Slight opaque ring was seen in crystal lens), eggs: 1/5
  Judgement 3 (Clear ring of white haze was seen in crystal lens), eggs: 1/5
  Judgement 4 ~ 5 (white haze of pinhole size in nucleus ~ whole nucleus hazed in white), eggs: 1/5
[8]; Example 3, Table 8
  IC50: 42000 nM
Mice [9]; 20 mg/kg
  glucose in urine: -
Mice [9]; 40 mg/kg
  glucose in urine: -
Mice [9]; 80 mg/kg
  glucose in urine: -
Mice [9]; 160 mg/kg
  glucose in urine: -
Mice [9]; 200 mg/kg
  glucose in urine: -
Mice [9]; 400 mg/kg
  glucose in urine: -
Mice [9]; 1000 mg/kg
  glucose in urine: -

## COC(=O)c1cc(C(=O)OC)c2c(n1)C(=O)C(=O)c1cc(C(=O)OC)[nH]c1-2 [PQQ trimethyl ester]
Mice [10]; 150 mg/kg
  Creatinine: 0.85 ± 0.08 mg/dL
  Glucose: 154 ± 23 mg/dL
  Urea nitrogen: 23 ± 2 mg/dL
Mice [10]; 400 mg/kg
  Creatinine: 0.73 ± 0.05 mg/dL
  Glucose: 117 ± 21 mg/dL
  Urea nitrogen: 20 ± 2 mg/dL
Mice [10]; 1000 mg/kg
  Creatinine: 0.73 ± 0.05 mg/dL
  Glucose: 125 ± 17 mg/dL
  Urea nitrogen: 17 ± 4 mg/dL
Mice [10]; mouse, in vivo, 1000 mg/kg
  kidney toxicity: No kidney toxicity was recognized
[3]; Example 1, Table 6
  IC50: 18.5 nM
Male mice SPF-ICR [5]
  mice died: no mice died
[6]
  Membrane permeation constant: 1.41 ± 0.48 10 ^-7 cm^2 · sec^-1
  membrane permeation constant relative to that of PQQ.2Na: about twice
[7]
  Judgement 1 (No haze was seen in crystal lens), eggs: 1/5
  Judgement 3 (Clear ring of white haze was seen in crystal lens), eggs: 1/5
  Judgement 4 ~ 5 (white haze of pinhole size in nucleus ~ whole nucleus hazed in white), eggs: 3/5
Mice [9]
  glucose detected in urine: no glucose was detected in urine
Mice [9]; 20 mg/kg
  glucose in urine: -
Mice [9]; 40 mg/kg
  glucose in urine: -
Mice [9]; 80 mg/kg
  glucose in urine: -
Mice [9]; 160 mg/kg
  glucose in urine: -
Mice [9]; 200 mg/kg
  glucose in urine: -
Mice [9]; 400 mg/kg
  glucose in urine: -
Mice [9]; 1000 mg/kg
  glucose in urine: -

## O=C(O)c1cc(C(=O)O)c2c(n1)c1ncoc1c1cc(C(=O)O)[nH]c12 [OPQ, 2,8,10-tricarboxy-1-H-oxazo[5,4-h]-pyrrolo[2,3-f]quinoline]
[3]; Example 2, Table 7
  IC50: 1220 nM
Mice [4]; 40 mg/kg
  Creatinine: 0.70 ± 0.10 mg/dL
  Glucose: 90 ± 18 mg/dL
  Urea nitrogen: 25 ± 3 mg/dL
Mice [4]; 80 mg/kg
  Creatinine: 0.80 ± 0.10 mg/dL
  Glucose: 86 ± 10 mg/dL
  Urea nitrogen: 23 ± 4 mg/dL
Mice [4]; 160 mg/kg
  Creatinine: 0.73 ± 0.09 mg/dL
  Glucose: 90 ± 23 mg/dL
  Urea nitrogen: 27 ± 6 mg/dL
Mice [4]; 200 mg/kg
  Creatinine: 0.81 ± 0.08 mg/dL
  Glucose: 85 ± 24 mg/dL
  Urea nitrogen: 28 ± 4 mg/dL
Mice [11]; i.p. 150 mg/kg
  Creatinine: 0.75 ± 0.05 mg/dL
  Glucose: 106 ± 21 mg/dL
  Urea nitrogen: 32 ± 3 mg/dL
Mice [11]; i.p. 300 mg/kg
  Creatinine: 0.78 ± 0.04 mg/dL
  Glucose: 80 ± 15 mg/dL
  Urea nitrogen: 29 ± 2 mg/dL
Mice [11]; i.p. 400 mg/kg
  Creatinine: 0.78 ± 0.04 mg/dL
  Glucose: 104 ± 18 mg/dL
  Urea nitrogen: 29 ± 3 mg/dL
Mice [11]; i.p. 600 mg/kg
  Creatinine: 0.78 ± 0.11 mg/dL
  Glucose: 74 ± 11 mg/dL
  Urea nitrogen: 32 ± 5 mg/dL
Male mice SPF-ICR [12]
  mice died: No mice died
Male mice SPF-ICR [5]
  mice died: no mice died
[7]
  Judgement 2 (Slight opaque ring was seen in crystal lens), eggs: 1/5
  Judgement 3 (Clear ring of white haze was seen in crystal lens), eggs: 1/5
  Judgement 4 ~ 5 (white haze of pinhole size in nucleus ~ whole nucleus hazed in white), eggs: 3/5
[8]; Example 4, Table 9
  IC50: 198000 nM
Mice [9]; 20 mg/kg
  glucose in urine: -
Mice [9]; 40 mg/kg
  glucose in urine: -
Mice [9]; 80 mg/kg
  glucose in urine: -
Mice [9]; 160 mg/kg
  glucose in urine: -
Mice [9]; 200 mg/kg
  glucose in urine: -
Mice [9]; 400 mg/kg
  glucose in urine: -
Mice [9]; 800 mg/kg
  glucose in urine: -
Mice [9]; 1000 mg/kg
  glucose in urine: -
Mice [9]; 1200 mg/kg
  glucose in urine: -
Male mice SPF-ICR [13]; i.p. 0.1-0.4 g/kg
  mice died: No mice died
Male mice SPF-ICR [13]; i.p. 0.8 g/kg
  mice died: two mice died
Male mice SPF-ICR [13]; i.p. 1.0 g/kg
  mice died: three mice died
Male mice SPF-ICR [13]; i.p. 1.2 g/kg
  mice died: six mice died
Male mice SPF-ICR [13]; mouse, in vivo, ip, 336 h
  LD50: about 1.0 g/kg-mouse
